Data published in ChEMBL document CHEMBL3351580, “Pyrano-isochromanones as IL-6 inhibitors: synthesis, in vitro and in vivo antiarthritic activity” (J Med Chem, 2014).

Key:
[1] = Solubility in water; format: physicochemical
Mus musculus [2] = assay: Antiinflammatory activity in BALB/c mouse assessed as serum TNFalpha level at 10 mg/kg, po qd for 5 days followed by LPS challenge 1 hr after last compound dose on fifth day and measured 4 hrs post LPS challenge by ELISA method (reference value: 717 +/- 218 pg/mL); format: functional
Mus musculus [3] = assay: Antiinflammatory activity in BALB/c mouse assessed as serum IL6 level at 100 mg/kg, po qd for 5 days followed by LPS challenge 1 hr after last compound dose on fifth day and measured 4 hrs post LPS challenge by ELISA method (reference value: 410 +/- 95 pg/mL); format: functional
CYP2C9 = CYP2C9 (Homo sapiens, UniProt P11712); assay: Inhibition of CYP2C9 (unknown origin) at 10 uM; format: ADME
CYP2C9, sequence (P11712 whole entry): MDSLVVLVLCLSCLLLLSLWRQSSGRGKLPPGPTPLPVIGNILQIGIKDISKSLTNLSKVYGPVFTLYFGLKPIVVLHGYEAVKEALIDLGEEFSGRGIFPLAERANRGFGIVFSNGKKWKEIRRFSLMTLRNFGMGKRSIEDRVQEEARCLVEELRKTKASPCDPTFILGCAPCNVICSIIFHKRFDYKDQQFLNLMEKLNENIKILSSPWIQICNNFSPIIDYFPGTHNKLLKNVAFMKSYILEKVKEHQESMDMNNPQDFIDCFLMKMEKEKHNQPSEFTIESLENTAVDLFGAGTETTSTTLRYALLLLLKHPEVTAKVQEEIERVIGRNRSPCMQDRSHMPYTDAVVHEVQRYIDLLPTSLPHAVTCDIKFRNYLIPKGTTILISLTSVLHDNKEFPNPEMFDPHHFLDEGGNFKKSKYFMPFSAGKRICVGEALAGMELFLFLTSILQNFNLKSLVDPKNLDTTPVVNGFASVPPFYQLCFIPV

Cytochrome P450 1A2 = target: T1, Cytochrome P450 1A2 (Homo sapiens, UniProt P05177); assay: Activation of CYP1A2 (unknown origin) assessed as increase in enzyme activity at 10 uM; format: ADME
T1 sequence (P05177 whole entry): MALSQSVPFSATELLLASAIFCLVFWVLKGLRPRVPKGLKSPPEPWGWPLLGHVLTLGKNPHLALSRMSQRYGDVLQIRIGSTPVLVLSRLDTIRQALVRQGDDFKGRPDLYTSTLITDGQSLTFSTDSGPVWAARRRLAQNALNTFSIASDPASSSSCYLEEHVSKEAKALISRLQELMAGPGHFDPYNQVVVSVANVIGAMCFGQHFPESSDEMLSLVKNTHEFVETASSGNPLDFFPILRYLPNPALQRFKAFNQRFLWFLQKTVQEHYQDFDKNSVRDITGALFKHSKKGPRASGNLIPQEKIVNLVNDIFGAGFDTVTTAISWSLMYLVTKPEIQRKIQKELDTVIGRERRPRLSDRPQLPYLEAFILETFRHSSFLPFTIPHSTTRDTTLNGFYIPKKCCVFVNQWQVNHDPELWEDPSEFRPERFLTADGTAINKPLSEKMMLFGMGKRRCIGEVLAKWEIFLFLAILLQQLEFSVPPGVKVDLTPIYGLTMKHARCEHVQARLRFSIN

[4] = Efflux ratio in human Caco2 cells; format: ADME, cell-based; conditions: Caco-2

solubility [1]: > 1500 µg/mL | inhibition at 10 µM (CYP2C9): 32% | Activity (Cytochrome P450 1A2): 10% | efflux ratio [4]: 2.2
Structure (SMILES): CCN(CC)Cc1c(O)c(OC)c(O)c2c1C(=O)O[C@@H]1[C@@H](O)[C@H](O)[C@@H](CO)O[C@@H]21
Activity (Mus musculus [2]): 585 pg/mL | Activity (Mus musculus [3]): 275 pg/mL
